Source: ChEMBL document CHEMBL1154271, “Anti-tumor-promoting effects of 25-methoxyporicoic acid A and other triterpene acids from Poria cocos” (J Nat Prod, 2009)

How the values were obtained:
Raji [1] = assay: Inhibition of TPA-induced EBV early antigen activation in human Raji cells at 10 molar ratio relative to TPA; values are per cent of control; conditions: human gammaherpesvirus 4
Raji [2] = assay: Inhibition of TPA-induced EBV early antigen activation in human Raji cells at 100 molar relative to TPA; values are per cent of control; conditions: human gammaherpesvirus 4
[3] = Cytotoxicity against human CRL1579 cells after 48 hrs by MTT assay; type: functional, cell-based
HL-60 = assay: Cytotoxicity against human HL60 cells after 48 hrs by MTT assay; type: functional, cell-based; conditions: HL-60, 48 h
Raji [4] = assay: Inhibition of TPA-induced EBV early antigen activation in human Raji cells at 1000 molar relative to TPA; values are per cent of control; conditions: human gammaherpesvirus 4
[5] = Inhibition of TPA-induced EBV early antigen activation in human Raji cells relative to TPA; type: cell-based, human gammaherpesvirus 4
[6] = Cytotoxicity against human Raji cells assessed as cell viability at 1000 molar ratio; type: cell-based; conditions: read-out: INH
Raji [7] = assay: Inhibition of TPA-induced EBV early antigen activation in human Raji cells at 500 molar relative to TPA; values are per cent of control; conditions: human gammaherpesvirus 4
Mus musculus [8] = organism: Mus musculus; assay: Inhibition of DMBA-induced/TPA-promoted carcinogenesis in ICR mouse assessed as reduction of skin papillomas measured after 11 weeks relative to TPA; type: functional
Mus musculus [9] = organism: Mus musculus; assay: Inhibition of DMBA-induced/TPA-promoted carcinogenesis in ICR mouse assessed as reduction of skin papillomas measured after 20 weeks relative to TPA; type: functional

## C=C(CC[C@@H](C(=O)O)[C@H]1[C@H](O)C[C@@]2(C)C3=C(CC[C@]12C)[C@@]1(C)CCC(=O)C(C)(C)[C@@H]1CC3)C(C)(C)O
Raji [1]
  level, % of control: 96.1%
Raji [2]
  level, % of control: 72.2%
[3]
  IC50: 28.7 µM
HL-60
  IC50: 84.7 µM
Raji [4]
  level, % of control: 0%
[5]
  IC50: 299 molar ratio
[6]
  viability at 1000 molar ratio: 70%
Raji [7]
  level, % of control: 36.1%

## C=C(CC[C@@H](C(=O)O)[C@H]1[C@H](O)C[C@@]2(C)C3=C(CC[C@]12C)[C@@]1(C)CCC(=O)C(C)(C)[C@@H]1CC3)C(C)C
Raji [1]
  level, % of control: 96.4%
Raji [2]
  level, % of control: 70.3%
[3]
  IC50: > 100 µM
HL-60
  IC50: > 100 µM
Raji [4]
  level, % of control: 2.2%
[5]
  IC50: 348 molar ratio
[6]
  viability at 1000 molar ratio: 70%
Raji [7]
  level, % of control: 28.3%

## C=C(CC[C@@H](C(=O)O)[C@H]1[C@H](O)C[C@@]2(C)[C@]34C=C[C@@]5(OO3)C(C)(C)[C@@H](O)CC[C@]5(C)C4=CC[C@]12C)C(C)C
[3]
  IC50: > 100 µM
HL-60
  IC50: > 100 µM

## C=C(C)[C@@H]1CC=C2C(=CC[C@]3(C)[C@@H]([C@@H](CCC(=C)C(C)(O)CO)C(=O)O)[C@H](O)C[C@@]23C)[C@@]1(C)CCC(=O)OC (stereo partly specified)
Raji [1]
  level, % of control: 80.2%
Raji [2]
  level, % of control: 55.3%
[3]
  IC50: 98.4 µM
HL-60
  IC50: 94.6 µM
Raji [4]
  level, % of control: 0%
[5]
  IC50: 187 molar ratio
[6]
  viability at 1000 molar ratio: 70%
Raji [7]
  level, % of control: 14.1%

## C=C(CC[C@@H](C(=O)O)[C@H]1[C@H](O)C[C@@]2(C)C3=CC[C@H]4C(C)(C)[C@H](O)CC[C@]4(C)C3=CC[C@]12C)C(C)(C)O
[3]
  IC50: 84 µM
HL-60
  IC50: 29.4 µM

## CC(C)(O)c1ccc2c(c1)C(=O)C[C@H]1[C@](C)(C(=O)O)CCC[C@]21C
Raji [1]
  level, % of control: 93.4%
Raji [2]
  level, % of control: 69.1%
[3]
  IC50: > 100 µM
HL-60
  IC50: > 100 µM
Raji [4]
  level, % of control: 0%
[5]
  IC50: 238 molar ratio
[6]
  viability at 1000 molar ratio: 60%
Raji [7]
  level, % of control: 19.5%

## C=C(CC[C@@H](C(=O)O)[C@H]1[C@H](O)C[C@@]2(C)C3=C(CC[C@]12C)[C@@](C)(CCC(=O)O)[C@H](C(=C)C)C=C3)C(C)C [6,7-DEHYDROPORICOIC ACID H]
Raji [1]
  level, % of control: 80.9%
Raji [2]
  level, % of control: 56%
[3]
  IC50: > 100 µM
HL-60
  IC50: > 100 µM
Raji [4]
  level, % of control: 0%
[5]
  IC50: 193 molar ratio
[6]
  viability at 1000 molar ratio: 70%
Raji [7]
  level, % of control: 15.2%

## C=C(C)[C@@H]1CC=C2C(=CC[C@]3(C)[C@@H]([C@@H](CCC(=C)C(C)(C)O)C(=O)O)CC[C@@]23C)[C@@]1(C)CCC(=O)O [25-HYDROXYPORICOIC ACID C]
Raji [1]
  level, % of control: 83.1%
Raji [2]
  level, % of control: 57.1%
[3]
  IC50: 92.7 µM
HL-60
  IC50: 30.8 µM
Raji [4]
  level, % of control: 0%
[5]
  IC50: 201 molar ratio
[6]
  viability at 1000 molar ratio: 70%
Raji [7]
  level, % of control: 16.2%

## C=C(C)[C@@H]1CC=C2C(=CC[C@]3(C)[C@@H]([C@@H](CCC(=C)C(C)(C)OC)C(=O)O)[C@H](O)C[C@@]23C)[C@@]1(C)CCC(=O)O [25-METHOXYPORICOIC ACID A]
Raji [1]
  level, % of control: 84.4%
Raji [2]
  level, % of control: 58.2%
[3]
  IC50: > 100 µM
Mus musculus [8]
  inhibition (INH): 20%
HL-60
  IC50: > 100 µM
Raji [4]
  level, % of control: 0%
[5]
  IC50: 268 molar ratio
Mus musculus [9]
  inhibition (INH): 80%
[6]
  viability at 1000 molar ratio: 70%
Raji [7]
  level, % of control: 17.8%

## CC1=C(/C=C/C(C)=C/C=C/C(C)=C/C=C/C=C(C)/C=C/C=C(C)/C=C/C2=C(C)CCCC2(C)C)C(C)(C)CCC1 [BETA CAROTENE]
Raji [1]
  level, % of control: 100%
Raji [2]
  level, % of control: 82.1%
Raji [4]
  level, % of control: 8.6%
[5]
  IC50: 397 molar ratio
Raji [7]
  level, % of control: 34.2%

## C=C(CC[C@@H](C(=O)O)[C@H]1[C@H](O)C[C@@]2(C)C3=CC[C@@H](C(=C)C)[C@](C)(CCC(=O)OC)C3=CC[C@]12C)C(C)C [PORICOIC ACID AM]
[3]
  IC50: 88.9 µM
HL-60
  IC50: 15.9 µM

## C=C(CC[C@@H](C(=O)O)[C@H]1[C@H](O)C[C@@]2(C)C3=CC[C@@H](C(=C)C)[C@](C)(CCC(=O)O)C3=CC[C@]12C)C(C)C [PORICOIC ACID A]
[3]
  IC50: > 100 µM
HL-60
  IC50: 38 µM

## C=C(C)[C@@H]1CC=C2C(=CC[C@]3(C)[C@@H]([C@@H](CCC=C(C)C)C(=O)O)[C@H](O)C[C@@]23C)[C@@]1(C)CCC(=O)O [PORICOIC ACID B]
[3]
  IC50: > 100 µM
HL-60
  IC50: > 100 µM

## C=C(C)[C@@H]1CC=C2C(=CC[C@]3(C)[C@@H]([C@@H](CCC(=C)C(C)(C)O)C(=O)O)[C@H](O)C[C@@]23C)[C@@]1(C)CCC(=O)OC [PORICOIC ACID DM]
[3]
  IC50: > 100 µM
HL-60
  IC50: > 100 µM

## C=C(C)[C@@H]1CCC2=C(CC[C@]3(C)[C@@H]([C@@H](CCC=C(C)C)C(=O)O)[C@H](O)C[C@@]23C)[C@@]1(C)CCC(=O)OC [PORICOIC ACID GM]
Raji [1]
  level, % of control: 86.4%
Raji [2]
  level, % of control: 60.1%
Raji [4]
  level, % of control: 0%
[5]
  IC50: 216 molar ratio
[6]
  viability at 1000 molar ratio: 70%
Raji [7]
  level, % of control: 19.9%

## C=C(C)[C@@H]1CCC2=C(CC[C@]3(C)[C@@H]([C@@H](CCC=C(C)C)C(=O)O)[C@H](O)C[C@@]23C)[C@@]1(C)CCC(=O)O [PORICOIC ACID G]
[3]
  IC50: > 100 µM
HL-60
  IC50: 32.6 µM

## C=C(CC[C@@H](C(=O)O)[C@H]1[C@H](O)C[C@@]2(C)C3=C(CC[C@]12C)[C@@](C)(CCC(=O)OC)[C@H](C(=C)C)CC3)C(C)C [PORICOIC ACID HM]
Raji [1]
  level, % of control: 87.5%
Raji [2]
  level, % of control: 61.3%
Raji [4]
  level, % of control: 0%
[5]
  IC50: 219 molar ratio
[6]
  viability at 1000 molar ratio: 70%
Raji [7]
  level, % of control: 20.3%

## C=C(CC[C@@H](C(=O)O)[C@H]1[C@H](O)C[C@@]2(C)C3=C(CC[C@]12C)[C@@](C)(CCC(=O)O)[C@H](C(=C)C)CC3)C(C)C [PORICOIC ACID H]
[3]
  IC50: > 100 µM
HL-60
  IC50: 28.4 µM
